This note sets out measurements from patent publication US9255103B2, “Substituted pyrazolo[1,5-a]pyrazines as mGluR5 receptor modulators” (Vanderbilt University, priority 2010, dated 2016).

The target of one data set is human mGluR5a receptor (Homo sapiens, UniProt P41594). The experiment in a line: Cell-based functional Ca2+ mobilization assay (FDSS), potentiation of glutamate EC20 response in H10H cell line. As to conditions: for Emax: percent of maximal glutamate response, human mGluR5 HEK cells; for pEC50 / EC50: HEK cells transfected with human mGluR5 (H10H), presence of glutamate EC20; for pEC50: concentration in mol/L; for EC50: read-out: EC50. The protocol:
Human embryonic kidney (HEK) cells transfected with rat mGluR5 were plated in clear bottom assay plates for assay in a Functional Drug Screening System (FDSS). In the alternative assay, HEK cells transfected with human mGluR5 (H10H cell line) were plated for assay in the FDSS. […] The cells were loaded with a Ca^2+-sensitive fluorescent dye (e.g., Fluo-4), and the plates were washed and placed in the FDSS instrument. After establishment of a fluorescence baseline for twelve seconds, the compounds of the present invention were added to the cells, and the response in cells was measured. Alternatively, in various further aspects, after establishment of a fluorescence baseline for about three seconds, the compounds of the present invention were added to the cells, and the response in cells was measured. Five minutes later, an mGluR5 agonist (e.g., glutamate, 3,5-dihydroxyphenylglycine, or quisqualate) was added to the cells, and the response of the cells was measured.
The above described assay operated in two modes. In the first mode, a range of concentrations of the present compounds were added to cells, followed by a single fixed concentration of agonist. If a compound acted as a potentiator, an EC50 value for potentiation and a maximum extent of potentiation by the compound at this concentration of agonist was determined by non-linear curve fitting. In the second mode, several fixed concentrations of the present compounds were added to various wells on a plate, followed by a range of concentrations of agonist for each concentration of present compound; the EC50 values for the agonist at each concentration of compound were determined by non-linear curve fitting. A decrease in the EC50 value of the agonist with increasing concentrations of the present compounds (a leftward shift of the agonist concentration-response curve) is an indication of the degree of mGluR5 potentiation at a given concentration of the present compound. An increase in the EC50 value of the agonist with increasing concentrations of the present compounds (a rightward shift of the agonist concentration-response curve) is an indication of the degree of mGluR5 antagonism at a given concentration of the present compound. The second mode also indicates whether the present compounds also affect the maximum response to mGluR5 to agonists.
The mGluR5 activity was determined using the metabotropic glutamate receptor activity assays in human embryonic kidney cells as described herein, wherein the human embryonic kidney cells were transfected with human mGluR5. The compounds in Table 1 were synthesized with methods identical or analogous to those shown herein. The requisite starting materials were commercially available, described in the literature, or readily synthesized by one skilled in the art of organic synthesis.
Human mGluR5a cDNA in pCMV6-XL6 mammalian expression plasmid was purchased from OriGene Technologies, Inc. (catalogue number SC326357) and subcloned into pcDNA3.1(−). Human embryonic kidney (HEK)293A cells were then transfected with human mGluR5a pcDNA3.1(−) using LipofectAmine2000 (Invitrogen) and monoclones were selected and tested for functional response using a Ca^2+ mobilization assay. Monoclones were named for the species (“H” for human) plus the location on the plate (e.g. “10H”).
HEK cells transfected with the human mGluR5a receptor (H10H cell line) were plated at 15,000 cells/well in clear-bottomed poly-D-lysine-coated assay plates (BD Falcon) in glutamate-glutamine-free growth medium and incubated overnight at 37° C. and 5% CO2. The following day, the growth medium was removed and the cells were washed with assay buffer containing 1× Hank's balanced salt solution (Invitrogen, Carlsbad, Calif.), 20 mM HEPES, 2.5 mM probenecid, pH 7.4 and left with 20 μL of this reagent.

The subject of a further data set is male Sprague-Dawley rats. Nature of the data set: Reversal of amphetamine-induced hyperlocomotion in rats. Type of data set: in vivo, rat. Particulars: oral gavage, doses as in FIG. 4; amphetamine sulfate 1 mg/kg sc; data only in FIG. 4. On the procedure:
Locomotor activity was assessed as mean distance traveled (cm) in standard 16×16 photocell testing chambers measuring 43.2 cm (Length)×43.2 cm (Width)×30.5 cm (Height) (Med Associates, St. Albans, Vt.). Animals were habituated to individual activity chambers for at least 30 min prior to drug administration. Following administration of drug or vehicle, activity was recorded for a 90 minute time period. Data was expressed as the mean (±SEM) distance traveled recorded in 5 min intervals over the test period. The data was analyzed using repeated measures analysis of variance (ANOVA) followed by post-hoc testing using Dunnett's test, when appropriate. A difference was considered significant when p≦0.05. […]
The animals were habituated in Smart Open Field locomotor activity test chambers (Hamilton-Kinder, San Diego, Calif.) with 16×16 photobeams to automatically record locomotor activity for 30 min and then dosed with vehicle or test compound. […] At 60 min, all rats were injected subcutaneously with 1 mg/kg amphetamine or vehicle and then monitored for an additional 60 min. Animals are monitored for a total of 120 minutes. Data are expressed as changes in ambulation defined as total number of beam breaks per 5 min periods.
The data for the dose-response studies were analyzed by a between-group analysis of variance. […]

Setting [1] is: HEK293, maximum average response at a single concentration, read-out: Emax.

Structures are written as SMILES. Read-outs that look alike come from different tables or passages of the source. Where only a bound is given, the exact number is not on record here.

human mGluR5a receptor, sequence (P41594 21-1180 isoform P41594-2 limits assumed): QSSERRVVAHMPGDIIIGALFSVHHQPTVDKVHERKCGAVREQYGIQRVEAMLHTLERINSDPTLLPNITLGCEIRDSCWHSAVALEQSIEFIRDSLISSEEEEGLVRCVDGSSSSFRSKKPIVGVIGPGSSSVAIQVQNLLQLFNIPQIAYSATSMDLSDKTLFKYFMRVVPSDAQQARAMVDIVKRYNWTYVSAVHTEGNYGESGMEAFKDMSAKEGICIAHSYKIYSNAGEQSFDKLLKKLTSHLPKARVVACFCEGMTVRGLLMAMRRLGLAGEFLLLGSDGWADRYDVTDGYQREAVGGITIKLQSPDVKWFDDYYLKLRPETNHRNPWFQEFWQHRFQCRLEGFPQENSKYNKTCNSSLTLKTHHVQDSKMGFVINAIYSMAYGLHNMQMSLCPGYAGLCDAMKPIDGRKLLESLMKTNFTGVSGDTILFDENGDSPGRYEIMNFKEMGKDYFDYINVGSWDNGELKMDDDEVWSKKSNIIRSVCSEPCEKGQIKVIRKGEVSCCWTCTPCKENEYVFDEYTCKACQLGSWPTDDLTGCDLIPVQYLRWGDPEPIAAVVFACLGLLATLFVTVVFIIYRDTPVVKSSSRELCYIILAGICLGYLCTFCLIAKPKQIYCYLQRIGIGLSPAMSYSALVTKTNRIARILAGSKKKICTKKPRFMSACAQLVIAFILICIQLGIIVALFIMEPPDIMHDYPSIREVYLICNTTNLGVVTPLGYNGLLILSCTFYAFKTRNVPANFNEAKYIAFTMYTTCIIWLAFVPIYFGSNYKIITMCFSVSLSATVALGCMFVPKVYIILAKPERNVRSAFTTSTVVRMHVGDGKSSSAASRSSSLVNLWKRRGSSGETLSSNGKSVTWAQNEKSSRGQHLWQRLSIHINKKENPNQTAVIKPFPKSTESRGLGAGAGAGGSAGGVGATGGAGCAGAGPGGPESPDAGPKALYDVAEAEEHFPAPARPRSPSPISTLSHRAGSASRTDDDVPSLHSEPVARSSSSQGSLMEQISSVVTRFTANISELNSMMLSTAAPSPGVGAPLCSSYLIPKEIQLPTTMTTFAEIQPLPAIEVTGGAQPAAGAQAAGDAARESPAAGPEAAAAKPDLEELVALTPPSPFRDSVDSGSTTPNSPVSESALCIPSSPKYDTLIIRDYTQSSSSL

What is called Emax is the size of the effect at its maximum, as opposed to the concentration needed. Usually pEC50 stands for the negative decadic logarithm of the EC50, by convention in mol/L. The term EC50 denotes the midpoint of the concentration-response curve. As usually defined, the melting point is the temperature, or range, at which the solid turns liquid. For `O=C(c1cccc(F)c1)N1CCn2nc(COc3ccc(F)cc3)cc2C1` [Compound 39], the melting point is > 300 °C. Besides, on human mGluR5a receptor (setting [1]), the Emax was 55%. Further, at human mGluR5a receptor, the pEC50 was 6.68 and the concentration giving a half-maximal response (EC50) was determined as 209 nM.

Compound `Cc1c(COc2ccccc2)nn2c1CN(C(=O)c1ccc(F)cc1)CC2` [Compound 57] returned a melting point of 158.5 °C. In addition, the maximal effect (Emax) on human mGluR5a receptor (setting [1]) is 44%. On human mGluR5a receptor, the pEC50 was determined as 5.52 and the EC50 amounted to 3020 nM.

In the case of `O=C(c1ccc(F)cc1)N1CCn2nc(COc3ccccc3)cc2C1` [FPPPM, (4-fluorophenyl)(2-(phenoxymethyl)-6,7-dihydropyrazolo[1,5-a]pyrazin-5(4H)-yl)methanone], in the data set on male Sprague-Dawley rats, the “reversal of amphetamine-induced hyperlocomotion” value is on record as “reversal of amphetamine-induced hyperlocomotion”.

Compound `O=C(c1ccc(F)c(F)c1)N1CCn2nc(COc3ccccc3)cc2C1` [Compound 4] registered a melting point of 100.6 °C. Besides, the Emax on human mGluR5a receptor (setting [1]) was found to be 70%. For the same compound, at human mGluR5a receptor, the pEC50 is 6.38 and the concentration giving a half-maximal response (EC50) was found to be 414 nM.

Regarding `O=C(c1ccc(F)cc1)N1CCn2nc(COc3ccccc3)cc2C1` [Compound 1], the melting point turned out to be 106 °C. In addition, at human mGluR5a receptor (setting [1]), the Emax was 67%. Also, at human mGluR5a receptor, the negative-log EC50 (pEC50) was found to be 6.79 and the concentration for a half-maximal effect (EC50) worked out at 161 nM.

Turning to `CC1Cn2nc(COc3ccccc3)cc2CN1C(=O)c1ccc(F)cc1` (centres unmarked) [Compound 46], the melting point was > 300 °C. Further, on human mGluR5a receptor, the negative logarithm of the EC50 (pEC50) was <4.52 and the EC50 is > 30200 nM. Further, the Emax at human mGluR5a receptor (maximum average response at a single concentration) came out at 35%.

In the case of `Cc1cccc(C(=O)N2CCn3nc(COc4cccc(F)c4)cc3C2)n1` [Compound 24], the melting point came to 88 °C. Besides, the maximal response (Emax) at human mGluR5a receptor (setting [1]) turned out to be 58%. Further, on human mGluR5a receptor, the negative logarithm of the EC50 (pEC50) is 5.51 and the EC50 was 3030 nM.

In the case of `CC1Cn2nc(COc3ccccc3)cc2CN1C(=O)c1cccc(C#N)c1` (centres unmarked) [Compound 49], the melting point was > 300 °C. Besides, the Emax at human mGluR5a receptor (setting [1]) was 52%. For the same compound, on human mGluR5a receptor, the pEC50 came out at 5.56 and the EC50 was 2750 nM.
